# US11241440B2, “Dihydrooxadiazine compounds for treating infections and cancer” (VALORALIA I MÁS D, SL, priority 2016, dated 2022)
# Test system: M. chelonae
# Test: Kirby-Bauer disk diffusion susceptibility test
# Assay type: cell-based
# Settings: M. chelonae strain 870, isolation year 2011
substance,measurement,value
Penicillin,Characteristics of strains: susceptibility or resistance,R
